The values that follow come from ChEMBL document CHEMBL5214974, “The design of protozoan phosphoribosyltransferase inhibitors containing non-charged phosphate mimic residues” (Bioorg Med Chem, 2022).

Usually Ki stands for the equilibrium dissociation constant of an inhibitor or competing ligand from its target.

Assay [1] can be described thus: Inhibition of N-terminal His6-tagged Trypanosoma cruzi HGPRT isoform C expressed in Escherichia coli C43(DE3) cells assessed as inhibition of IMP formation using hypoxanthine as substrate by spectrophotometric assay.
The nature of assay [2]: Inhibition of N-terminal His6-tagged HGXPRT expressed in Escherichia coli BL21 cells assessed as reduction in NADH absorbance using hypoxanthine as substrate by IMPDH coupled assay. Also on record: species or system Plasmodium falciparum.
A short description of assay [3]: Inhibition of N-terminal His6-tagged Trypanosoma cruzi HGXPRT isoform B expressed in Escherichia coli BL21(DE3) cells assessed as inhibition of IMP formation using hypoxanthine as substrate by spectrophotometric assay.

Bounds are passed on as bounds.

For `O=c1[nH]cnc2c(CN[C@H](CO)CCP(=O)(O)O)c[nH]c12`, the Ki in assay [1] is 0.011 µM; in assay [2], 0.00065 µM.
With `O=C1CN(CC[C@@H](CO)NCc2c[nH]c3c(O)nc(O)nc23)S(=O)(=O)N1`, the Ki in assay [3] was above 140 µM; in assay [1], above 130 µM; in assay [2], above 20 µM.
With `O=P(O)(O)CC[C@@H](CO)NCc1c[nH]c2c(O)nc(O)nc12`, the Ki worked out at 18 µM in assay [1] and 8 µM in assay [2].
The corresponding values for `Nc1nc(O)c2[nH]cc(CN[C@H](CO)CCP(=O)(O)O)c2n1` are 0.03 µM and 0.0005 µM.
As to `NS(=O)(=O)NC[C@@H](CO)NCc1c[nH]c2c(O)ncnc12`, the Ki in assay [3] was above 140 µM; in assay [1], above 130 µM; in assay [2], above 20 µM.
The corresponding values for `O=C1N[C@@H]([C@@H](CO)NCc2c[nH]c3c(O)ncnc23)CO1` are above 140 µM, above 130 µM and above 20 µM.
Take `O=c1cc([C@@H](CO)NCc2c[nH]c3c(O)ncnc23)o[nH]1`: the Ki in assay [3] was above 140 µM; in assay [1], above 130 µM; in assay [2] it was above 20 µM.
Consider `O=c1c(O)c(NCC[C@@H](CO)NCc2c[nH]c3c(O)ncnc23)c1=O`, for which the values for the Ki in assay [3], in assay [1] and in assay [2] were above 140 µM, above 130 µM and above 20 µM, respectively.
The corresponding values for `O=c1c(O)c(NC[C@@H](CO)NCc2c[nH]c3c(O)ncnc23)c1=O` are above 140 µM, above 130 µM and above 20 µM.
The corresponding values for `NS(=O)(=O)NC[C@@H](CO)NCc1c[nH]c2c(O)nc(O)nc12` are above 140 µM, above 130 µM and above 20 µM.
The corresponding values for `O=C1CN(C[C@@H](CO)NCc2c[nH]c3c(O)nc(O)nc23)S(=O)(=O)N1` are above 140 µM, above 130 µM and above 20 µM.
As for `O=C1CN(CC[C@@H](CO)NCc2c[nH]c3c(O)ncnc23)S(=O)(=O)N1`, the Ki was above 140 µM in assay [3], above 130 µM in assay [1] and above 20 µM in assay [2].
As to `O=C1CN(C[C@@H](CO)NCc2c[nH]c3c(O)ncnc23)S(=O)(=O)N1`, the Ki in assay [3] was above 140 µM; in assay [1], above 130 µM; in assay [2] it was above 20 µM.
